Values of other authors in publication PMC7763995 (Molecules, 2020).

Tested on: AChE-induced Aβ aggregation
Set-up: method as in PMID 12527333
Conditions: at 100 μM; cited from earlier work

In the case of `CC[N+](C)(CC)CCC[n+]1c(-c2ccccc2)c2cc(N)ccc2c2ccc(N)cc21` [Propidium, propidium], the “Decrease in AChE-induced Aβ aggregation” value is listed as 82%.
